Measured values reported in publication PMC3375280 (PLoS ONE, 2012).
Numbering of substitutions follows the chain as printed.

What was measured:
[1] = target: T1, AT1 S107A mutant receptor (Rattus norvegicus, UniProt P25095, S107A); assay: competition binding, S107A mutant; conditions: for Kd ratio relative to WT (in parentheses): S107A / WT; for Kd: S107A, COS1 membranes, read-out: Binding affinity (Kd)
T1 construct: expressed in transfected cells; host or cells: COS1
T1 sequence (P25095 1-359 S107A): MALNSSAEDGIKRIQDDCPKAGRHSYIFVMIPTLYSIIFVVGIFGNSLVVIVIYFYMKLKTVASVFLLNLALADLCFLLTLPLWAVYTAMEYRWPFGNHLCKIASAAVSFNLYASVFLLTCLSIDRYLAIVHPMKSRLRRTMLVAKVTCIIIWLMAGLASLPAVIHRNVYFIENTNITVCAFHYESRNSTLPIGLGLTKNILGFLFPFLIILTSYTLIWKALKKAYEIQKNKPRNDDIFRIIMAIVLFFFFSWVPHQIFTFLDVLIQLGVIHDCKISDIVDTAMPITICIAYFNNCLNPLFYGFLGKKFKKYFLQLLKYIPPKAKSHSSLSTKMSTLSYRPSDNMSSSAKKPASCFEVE
Method: (§1) The Kd and Bmax values of receptor binding were determined by ^125I-[Sar^1, Ile^8] […] Membranes expressing the WT or mutant AT1 receptors were incubated with 100 pM ^125I-[Sar^1, Ile^8] […] The binding reaction was terminated by filtering the incubation mixture through Whatman GF/C glass filters, and the residues were extensively washed further with binding buffer. The bound ligand fraction was determined from the counts per minute (cpm) remaining on the membrane. Binding kinetics values were determined as previously described.

[2] = target: T2, AT1 C76A/A106C/C289A mutant receptor (Rattus norvegicus, UniProt P25095, A106C/C289A/C76A); assay: competition binding, C76A/A106C/C289A mutant; conditions: for Kd ratio relative to WT (in parentheses): C76A/A106C/C289A / WT; for Kd: C76A/A106C/C289A, COS1 membranes, read-out: Binding affinity (Kd)
T2 construct: expressed in transfected cells; host or cells: COS1
T2 sequence (P25095 1-359 C76A/A106C/C289A): T1 sequence (P25095 1-359 S107A) with C76A, A106C, A107S, C289A
Method: as §1

[3] = target: T3, AT1 C76A/L112C/C289A mutant receptor (Rattus norvegicus, UniProt P25095, C289A/C76A/L112C); assay: competition binding, C76A/L112C/C289A mutant; conditions: for Kd ratio relative to WT (in parentheses): C76A/L112C/C289A / WT; for Kd: C76A/L112C/C289A, COS1 membranes, read-out: Binding affinity (Kd)
T3 construct: expressed in transfected cells; host or cells: COS1
T3 sequence (P25095 1-359 C76A/L112C/C289A): T1 sequence (P25095 1-359 S107A) with C76A, A107S, L112C, C289A
Method: as §1

[4] = target: T4, AT1 C76A/V108C/C289A mutant receptor (Rattus norvegicus, UniProt P25095, C289A/C76A/V108C); assay: competition binding, C76A/V108C/C289A mutant; conditions: for Kd ratio relative to WT (in parentheses): C76A/V108C/C289A / WT; for Kd: C76A/V108C/C289A, COS1 membranes, read-out: Binding affinity (Kd)
T4 construct: expressed in transfected cells; host or cells: COS1
T4 sequence (P25095 1-359 C76A/V108C/C289A): T1 sequence (P25095 1-359 S107A) with C76A, A107S, V108C, C289A
Method: as §1

[5] = target: T5, AT1 L112A mutant receptor (Rattus norvegicus, UniProt P25095, L112A); assay: competition binding, L112A mutant; conditions: for Kd ratio relative to WT (in parentheses): L112A / WT; for Kd: L112A, COS1 membranes, read-out: Binding affinity (Kd)
T5 construct: expressed in transfected cells; host or cells: COS1
T5 sequence (P25095 1-359 L112A): T1 sequence (P25095 1-359 S107A) with A107S, L112A
Method: as §1

[6] = target: T6, AT1 C76A/S109C/C289A mutant receptor (Rattus norvegicus, UniProt P25095, C289A/C76A/S109C); assay: competition binding, C76A/S109C/C289A mutant; conditions: for Kd ratio relative to WT (in parentheses): C76A/S109C/C289A / WT; for Kd: C76A/S109C/C289A, COS1 membranes, read-out: Binding affinity (Kd)
T6 construct: expressed in transfected cells; host or cells: COS1
T6 sequence (P25095 1-359 C76A/S109C/C289A): T1 sequence (P25095 1-359 S107A) with C76A, A107S, S109C, C289A
Method: as §1

Row | Structure (SMILES) | Kd ratio relative to WT (in parentheses) [1] [fold] | Kd [1] [µM] | Kd ratio relative to WT (in parentheses) [2] [fold] | Kd [2] [µM] | Kd ratio relative to WT (in parentheses) [3] [fold] | Kd [3] [µM] | Kd ratio relative to WT (in parentheses) [4] [fold] | Kd [4] [µM] | Kd ratio relative to WT (in parentheses) [5] [fold] | Kd [5] [µM] | Kd ratio relative to WT (in parentheses) [6] [fold] | Kd [6] [µM] | Kd ratio relative to WT (in parentheses) ([5]; listed as olmesartan) [fold]
1 | CCCc1nc(C(C)(C)O)c(C(N)=O)n1Cc1ccc(-c2ccccc2-c2nnn[nH]2)cc1 [R239470] | 1.6 | 0.0013 ± 0.0002 | 5.1 | 0.0041 ± 0.001 | 4.0 | 0.0032 ± 0.0013 | 13 | 0.01 ± 0.002 | 54 | 0.043 ± 0.012 | 14 | 0.011 ± 0.003 | –
2 | CCCc1nc(C(C)(C)O)c(C(N)=O)n1Cc1ccc(-c2cc(Cc3ccc(O)cc3)ccc2-c2nnn[nH]2)cc1 [R794847] | 1.2 | 0.059 ± 0.027 | 4.0 | 0.193 ± 0.073 | 1.3 | 0.062 ± 0.009 | 8 | 0.391 ± 0.054 | 0.6 | 0.031 ± 0.005 | 2.0 | 0.096 ± 0.018 | –
3 | CCCc1nc(C(C)(C)O)c(C(=O)O)n1Cc1ccc(-c2ccccc2-c2nnn[nH]2)cc1 [Olmesartan, olmesartan, reference compound] | 1.1 | 0.0025 ± 0.0005 | 3.9 | 0.0089 ± 0.004 | 2.7 | 0.0061 ± 0.0021 | 14 | 0.032 ± 0.001 | 12 | 0.027 ± 0.007 | 13 | 0.029 ± 0.005 | > 10
